Data: patent publication US20230241167A1, “Use of Caveolin-1 Scaffolding Domain Peptides for Treating Disease and Disorders” (MUSC Foundation for Research Development, priority 2020, published 2023)
Ends that are not written are not given here.

Experiments:
Ang II-infused mice = assay: Angiotensin II-induced congestive heart failure (CHF) model; type: in vivo; conditions: daily i.p. injections
Protocol: FIG. 1 provides an overview of an experiment using Full-Length CSD, 82-89, 88-95, and 94-101 (SEQ ID NO:1, SEQ ID NO:2, SEQ ID NO:3, and SEQ ID NO:4 respectively).
Young mice (3 months old) infused with Ang II or vehicle for two weeks received daily i.p. injections of CSD, the indicated subdomains or scrambled CSD (0.8 μmol/kg). Mice were evaluated by Echocardiography for changes in posterior wall thickness (pWTh), fractional shortening (FS), cardiac output (CO), ejection fraction (EF), and isovolumic relaxation time (IVRT). Significant changes are shown as ***p<0.001 for Sham+Veh vs AngII+Veh. Significant suppression of AngII-induced changes is shown as ^p<0.05, ^^p<0.01, and ^^^p<0.001 for AngII+Veh vs AngII+CSD or AngII+CSD subdomains. The number of mice used in each treatment are shown in the HW/BW data.
Young mice (3 months old) infused with Ang II or vehicle for two weeks received daily i.p. injections of the indicated subdomains of CSD. The results of a typical experiment for Col I and HSP47 (FIG. 4) and for microvascular leakage (FIG. 5) are shown in Western blots (2 to 3 mice per group). The data are quantified below (n=4). Significant changes are shown as *p<0.05 and **p<0.01 for Sham+Veh vs Ang II+Veh. Significant suppression of Ang II-induced changes by subdomains are shown as ^p<0.05, […], and ^^^p<0.001 for Ang II+Veh vs Ang II+CSD subdomains.
Young mice (3 months old) infused with Ang II or vehicle for two weeks received daily i.p. injections of W82-89. IgG heavy chain (IgGH) leakage and Col I accumulation are shown in Western blots. The actin loading control is present twice because IgGH was analyzed in the supernatant fraction of heart homogenate while Col I is found in the pellet fraction. In the quantitation (n=4), significant changes are shown as **p<0.01 and ***p<0.001 for Sham+Veh vs Ang II+Veh and ^^p<0.01 and ^^^p<0.001 for reversal of AngII-induced changes by W82-89.

[1] = test system: fibrosis in lung, skin, and heart; conditions: literature; cited from earlier work
[2] = test system: aged C57/Bl6 mice (18 months); assay: Aging-associated pathological changes in heart and kidney of aged mice; type: in vivo; conditions: echocardiography
[3] = test system: Bone marrow (BM) monocytes; assay: Migration of bone marrow monocytes from bleomycin-treated mice treated in vivo; conditions: mice treated in vivo prior to harvesting the monocytes
Excerpt: Recruitment of activated monocytes into damaged lung tissue contributes to the progression of fibrosis and is suppressed in vivo by CSD (FIG. 22). Bone marrow (BM) monocytes were isolated from control and bleomycin-treated mice.

[4] = test system: aged mice (18-month old), brain tissue; assay: Aging-associated pathological changes in the brain of aged mice; type: in vivo; conditions: 18-month old mice; CSD injections for four weeks; Western blot
Protocol: FIG. 16 provides an overview of an experiment using CSD (SEQ ID NO: 1). It is similar to the experiment described in FIG. 9 except that the readouts were performed on brain tissue rather than heart and kidney tissue.
Mice were treated as described in FIG. 10, except that CSD injections were for four weeks. Brain tissue extracts were analyzed by Western blot for microvascular leakage and fibrosis (FIG. 17) and for tyrosine kinase activation (FIG. 18). In the quantifications (n=3), significant changes are shown as ***p<0.001 and **p<0.01 between young and aged mice and ^^^p<0.001 and ^^p<0.01 for decreases in aged mice due to CSD treatment.

[5] = test system: aged C57/Bl6 mice (18 months); assay: Aging-associated pathological changes in heart and kidney of aged mice; type: in vivo
Protocol: The function of various organs in the elderly goes downhill progressively. This is in part due to increases in fibrosis and microvascular leakage. The experiments presented in this Example have examined these progressive processes in mice.
Young C57/Bl6 mice (3 months), middle-aged C57/Bl6 mice (9 months), and aged C57/Bl6 mice (18 months) were injected daily i.p. for six weeks with saline vehicle or CSD. IgG heavy chain leakage and Col I accumulation were evaluated by Western blots of heart (FIG. 10) and kidney tissue (FIG. 11). Actin was the loading control. Two to three mice per category are shown. In the quantifications (n=4), significant changes are shown as ***p<0.001 between young and aged mice and ^^^p<0.001 for decreases in aged mice treated with CSD. In FIG. 12, representative examples of picrosirius red staining of heart and kidney tissue sections from the indicated mice are shown. The data were quantified (n=3) as in terms of Collagen Volume Fraction. Significant changes are shown as ***p<0.001 and **p<0.01 between young and aged mice and ^p<0.05 for decreases in aged mice treated with CSD.
The same extracts used in FIG. 10 and FIG. 11 were analyzed by Western Blot for tyrosine kinase activation using antibodies specific for phosphorylated tyrosine residues in PDGFR (α-Y849/β-Y857), c-Src Y426, and Pyk2 Y402. Actin was the loading control. In the quantifications, significant changes are shown as ***p<0.001 and **p<0.01 between young and aged mice and ^^^p<0.001 and ^^p<0.01 for decreases in Aged mice treated with CSD.
Echocardiographic analyses were performed on the same mice used in FIG. 10 and FIG. 11 prior to their sacrifice. M-mode echo measurements in parasternal short-axis (PSAX) view were used to quantify changes in EF and FS. Tissue Doppler measurements in PSAX were used to measure IVRT. Values are shown as Mean±SEM. Statistically significant changes are shown as ***p<0.001 between young and aged mice and ^p<0.05 for improved functions in aged mice due to CSD treatment (FIG. 14).
Left ventricle tissue sections from the same mice used in FIG. 10 were stained with hematoxylin-eosin and cardiomyocyte cross-sectional area was quantified by measuring at least 50 cardiomyocytes for each group (n=3) using SigmaScan Pro image analysis. Statistical significance is shown as ***p<0.001 between young and aged mice and ^p<0.05 for decreased hypertrophy in aged mice due to CSD treatment (FIG. 15).

bleomycin-treated mice = assay: Bleomycin-induced lung and skin fibrosis, treatments delivered by pump; type: in vivo
Protocol: Experiments were conducted to examine the effect of unmodified CSD subdomains on lung and skin fibrosis. […] Pumps containing bleomycin or saline vehicle were implanted subcutaneously into mice. After one week, the pumps had emptied and were replaced with pumps designed to empty over two weeks containing the indicated treatments (n=6 per group). After these two weeks, the mice were sacrificed.
Skin in the vicinity of the pump outlet was harvested for measurement of the thickness of the dermis and the intradermal fat. ^^^p<0.001 for Saline/Vehicle vs Bleo/Vehicle. ***p<0.001, **p<0.01, *p<0.05 for Bleo/Vehicle vs Bleo/Peptide Treatments.

[6] = 18-month old mice, daily i.p. six weeks, Western blot
[7] = aged mice, Western blot for phosphorylated tyrosine residues
[8] = skin in the vicinity of the pump outlet

## caveolin-1 scaffolding domain peptide (DGIWKASFTTFTVTKYWFYR-NH2) [CSD, amino acids 82-101 of caveolin-1]
Ang II-infused mice; young mice (3 months) infused with Ang II two weeks
  suppression of the effects of AngII on Heart Weight/Body Weight (HW/BW) ratio: suppress
Ang II-infused mice; young mice infused with Ang II two weeks, echocardiography
  suppression of the effects of AngII on Ejection Fraction (EF), Fractional Shortening (FS), Isovolumic Relaxation Time (IVRT): suppress
[1]
  inhibition of fibrosis in vivo: inhibits fibrosis in vivo in lung, skin, and heart
[2]
  FS and SV (ventricular function): positive effect
[3]
  enhanced migration of BM monocytes from bleomycin-treated mice: suppression
[4]
  level of activated tyrosine kinases in the brain: decreases these levels almost to the levels observed in healthy 3-month old mice
  level of fibrosis in the brain: decreases these levels almost to the levels observed in healthy 3-month old mice
  level of microvascular leakage in the brain: decreases these levels almost to the levels observed in healthy 3-month old mice
[5]; [6]
  level of fibrosis (Col I accumulation) in the heart: reverses the levels of fibrosis and microvascular leakage almost to the level observed in 3-month old mice
  level of fibrosis (Col I accumulation) in the kidney: reverses the levels of fibrosis and microvascular leakage almost to the level observed in 3-month old mice
  level of microvascular leakage (IgG heavy chain) in the heart: reverses the levels of fibrosis and microvascular leakage almost to the level observed in 3-month old mice
  level of microvascular leakage (IgG heavy chain) in the kidney: reverses the levels of fibrosis and microvascular leakage almost to the level observed in 3-month old mice
[5]; aged mice, heart tissue sections
  picrosirius red staining (collagen volume fraction), heart: significantly reduced
[5]; aged mice, kidney tissue sections
  picrosirius red staining (collagen volume fraction), kidney: significantly reduced
[5]; [7]
  aging-associated activation of tyrosine kinases PDGFR, c-Src and Pyk2, heart: almost completely reversed
  aging-associated activation of tyrosine kinases PDGFR, c-Src and Pyk2, kidney: almost completely reversed
[5]; aged mice, echocardiography
  IVRT (prolonged ventricular relaxation time caused by aging): resolved by CSD treatment
[5]; aged mice, left ventricle sections
  cardiomyocyte hypertrophy (cross-sectional area): reversed
bleomycin-treated mice; [8]
  dermal fibrosis (thickness of the dermis): suppression
  loss of intradermal fat: suppression
bleomycin-treated mice; treatment by pump over two weeks after one week bleomycin, n=6
  bleomycin-induced lung fibrosis (Ashcroft score): suppression
